These results are taken from patent US20040191171A1, “Method of detecting skin stimulation effect” (priority 2001, published 2004).

Type in all cases: cell-based
One experiment deals with P2X receptor. Briefly: Intracellular calcium ion concentration in cultured epidermal keratinocytes (Fluo3-AM fluorescence), P2X agonist/inhibitor. To be noted: FIG. 2; for concentration of intracellular calcium ions in the keratinocytes: agonist solution (final concentration 10 μM) added to epidermal keratinocytes. As to the method:
(a) Commercially available epidermal keratinocytes (product of Kurabo Industries Ltd.) were subjected to culture by means of a customary method by use of a KGM medium which had been prepared through the following procedure: MCDB153IK (product of Kyokuto Pharmaceutical Industrial Co., Ltd.) (10.93 g), N-2-hydroxyethylpiperazine-N′-2-ethanesulphonic acid (HEPES) (6.7 g), NaHCO3 (1.2 g), insulin (5 mg), hydrocortisone (0.5 mg), transferrin (10 mg), phosphorylethanolamine (14.1 mg), EGF (10 μg), penicillin (100 mg), and kanamycin (60 mg) were dissolved in purified water (1 L); the pH of the resultant solution was adjusted to 7.4 by use of NaOH; the resultant solution was subjected to filter sterilization; and bovine pituitary gland extract (product of Kyokuto Pharmaceutical Industrial Co., Ltd.) (55 mg) was added to the resultant solution immediately before use of the solution. On the day before measurement of calcium ions was carried out, the thus-cultured epidermal keratinocytes were inoculated into a 96-well plate (2×10^5 cells/well). On the following day, the aforementioned culture solution was removed from the well plate by use of a pipette such that the cells were not exfoliated from the wells. Subsequently, a balanced salt solution (BSS: an aqueous solution prepared by dissolving NaCl (150 mM), KCl (5 mM), CaCl2 (1.8 mM), NaH2PO4 (1.2 mM), MgCl2 (1.2 mM), D-glucose (10 mM), and HEPES (25 mM) in water, and adjusting the pH of the resultant solution to 7.4 by use of NaOH) and Fluo3-AM (product of Dainippon Pharmaceutical Co., Ltd.), which is a calcium-sensitive fluorescent dye, were added to the cultured epidermal keratinocytes (total amount of BSS and Fluo3-AM per well: […]), and incubation was carried out at 37° C. for 60 minutes, to thereby introduce the fluorescent dye into the cultured epidermal keratinocytes. […]
(§1) The fluorescence intensity was measured over time by means of a customary method by use of a fluorescence microplate reader (485 nm, 538 nm).
(§2) The concentration of intracellular calcium ions in the cells was calculated by use of the following formula. […]
A general note: Calcium assays in cells follow changes in intracellular calcium, usually with a dye or a luminescent sensor.

The target of the next experiment is T1, VR1 receptor (Homo sapiens, UniProt Q8NER1).
T1 construct: epidermal keratinocytes were brought into contact with capsaicin, which is an agonist of a VR1 receptor; host or cells: cultured epidermal keratinocytes
T1 sequence (Q8NER1 whole entry): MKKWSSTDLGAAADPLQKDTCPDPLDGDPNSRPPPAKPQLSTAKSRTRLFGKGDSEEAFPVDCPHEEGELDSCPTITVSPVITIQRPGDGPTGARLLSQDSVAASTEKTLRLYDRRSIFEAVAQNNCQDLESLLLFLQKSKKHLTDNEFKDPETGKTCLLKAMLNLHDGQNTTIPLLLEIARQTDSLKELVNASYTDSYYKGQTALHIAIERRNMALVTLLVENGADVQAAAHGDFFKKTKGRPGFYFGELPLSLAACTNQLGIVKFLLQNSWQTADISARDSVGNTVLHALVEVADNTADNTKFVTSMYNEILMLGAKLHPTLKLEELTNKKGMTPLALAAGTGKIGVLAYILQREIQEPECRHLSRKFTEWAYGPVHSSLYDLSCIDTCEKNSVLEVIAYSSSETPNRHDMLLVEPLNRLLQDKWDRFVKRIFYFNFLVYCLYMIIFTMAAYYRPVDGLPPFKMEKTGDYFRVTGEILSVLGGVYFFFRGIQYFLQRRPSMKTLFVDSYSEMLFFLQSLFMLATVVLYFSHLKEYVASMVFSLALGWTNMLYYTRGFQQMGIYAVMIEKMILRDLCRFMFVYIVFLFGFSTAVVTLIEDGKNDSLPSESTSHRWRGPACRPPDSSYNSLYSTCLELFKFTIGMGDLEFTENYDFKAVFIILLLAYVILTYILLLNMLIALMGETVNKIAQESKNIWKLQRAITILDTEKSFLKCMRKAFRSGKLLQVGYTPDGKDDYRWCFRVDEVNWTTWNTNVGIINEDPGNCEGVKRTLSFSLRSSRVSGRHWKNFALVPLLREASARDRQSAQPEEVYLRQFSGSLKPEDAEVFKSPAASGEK
Description: Intracellular calcium ion concentration in cultured epidermal keratinocytes (Fluo3-AM fluorescence), VR1 agonist/antagonist. As to the method: (§3) (a) Commercially available epidermal keratinocytes (product of Kurabo Industries Ltd.) were subjected to culture by means of a customary method by use of a KGM medium which had been prepared through the following procedure: MCDB153IK (product of Kyokuto Pharmaceutical Industrial Co., Ltd.) (10.93 g), N-2-hydroxyethylpiperazine-N′-2-ethanesulphonic acid (HEPES) (6.7 g), NaHCO3 (1.2 g), insulin (5 mg), hydrocortisone (0.5 mg), transferrin (10 mg), phosphorylethanolamine (14.1 mg), EGF (10 μg), penicillin (100 mg), and kanamycin (60 mg) were dissolved in purified water (1 L); the pH of the resultant solution was adjusted to 7.4 by use of NaOH; the resultant solution was subjected to filter sterilization; and bovine pituitary gland extract (product of Kyokuto Pharmaceutical Industrial Co., Ltd.) (55 mg) was added to the resultant solution immediately before use of the solution. On the day before measurement of calcium ions was carried out, the thus-cultured epidermal keratinocytes were inoculated into a 96-well plate (2×10^5 cells/well). […]
as §1, §2

A further experiment deals with epidermal keratinocytes. Briefly: Intracellular calcium ion concentration in epidermal keratinocytes after adding pain-producing substances. The following applies: lactic acid present (mM range), two seconds after addition of the solution; FIG. 4. As to the method: as §3, with “solution.” for “solution. On the day before measurement of calcium ions was carried out, the thus-cultured epidermal keratinocytes were inoculated into a 96-well plate (2×10^5 cells/well).”
as §1, §2
Fmin: Fluorescence intensity of Fluo3-AM when EDTA is added and Ca^2+ is blocked (minimum fluorescence intensity)
Fmax: Fluorescence intensity of Fluo3-AM in the presence of excess Ca^2+ (breakage of cell membranes by a surfactant) (maximum fluorescence intensity) […]

Regarding “2′,3′-o-(2,4,6-trinitrophenyl)adenosine 5′-triphosphate [TNP-ATP]”, the “increase in the concentration of intracellular calcium ions caused by αβ-me ATP” value in the experiment with P2X receptor (keratinocytes preliminarily treated with TNP-ATP (100 nM) for 10 minutes, then mixture of TNP-ATP and αβ-me ATP added) is “suppressed”. For `Nc1ncnc2c1ncn2[C@@H]1O[C@H](COP(=O)(O)OP(=O)(O)OP(=O)(O)O)[C@@H](O)[C@H]1O` [ATP, adenosine 5′-triphosphate], the “concentration of intracellular calcium ions in the keratinocytes” value with P2X receptor is given as “significantly increased”. Turning to `COc1cc(CNC(=O)CCCC/C=C/C(C)C)ccc1O` [capsaicin], on VR1 receptor (capsaicin solution (final concentration 100 nM to 10 μM) added to epidermal keratinocytes, FIG. 1A), the “concentration of intracellular calcium ions in the keratinocytes” value is recorded as “significantly increased”.

`Oc1cc2c(cc1O)CN(C(=S)NCCc1ccc(Cl)cc1)CCC2` [capsazepine]: the “increase in the concentration of intracellular calcium ions caused by capsaicin” value at VR1 receptor (keratinocytes preliminarily treated with capsazepine for 10 minutes, then mixture of capsaicin and capsazepine added, FIG. 1B) is given as “suppressed”.

For `CC(O)C(=O)O` (stereo not drawn) [lactic acid], the “concentration of intracellular calcium ions in the epidermal keratinocytes” value in the experiment with epidermal keratinocytes is listed as “increased”. As for `Nc1ncnc2c1ncn2[C@@H]1O[C@H](COP(=O)(O)CP(=O)(O)OP(=O)(O)O)[C@@H](O)[C@H]1O` [αβ-me ATP, αβ-methelene ATP], in the experiment with P2X receptor, the “concentration of intracellular calcium ions in the keratinocytes” value is listed as “significantly increased”.
